Values quoted from earlier work, collected in US12329856B2, “Crosslinked hyaluronic acid composition with local anesthetics” (BIOPOLIMERI S.R.L., priority 2021, dated 2025).

Conditions: tabulated in the state of the art

Row | pKa^T (thermodynamic pKa) | SMILES
1 | 7.8 | Cc1cccc(C)c1NC(=O)C1CCCCN1C (centres unmarked) [mepivacaine]
2 | 7.6 | CCCNC(C)C(=O)Nc1c(C)csc1C(=O)OC (centres unmarked) [articaine]
